From article PMC10700596 (Nature Communications, 2023)
Where “and” joins values, the source holds several entries; their conditions need not be identical. Equal entries are not always repeated. Where two headings read alike, the source gives them in different places.

Assay: in vivo
Format: in vivo, mice
Conditions: mice; for concentration at 5 min / concentration at 15 min / concentration at 30 min / concentration at 60 min / concentration at 120 min / concentration at 240 min / concentration at 360 min / concentration at 480 min / concentration at 1440 min / CSF concentration, Final (individual sample) / Brain concentration, Final (individual sample) / Plasma concentration, Final (individual sample): 10 mg/kg, IP 10 mg/kg

## CCc1nc2c(C)nc(C)cc2n1-c1ccc(CCNC(=O)NS(=O)(=O)c2ccc(C)cc2)cc1 [Grapiprant, reference compound]
male, CD-1, mouse, CSF, ip, CSF, 5 min, mean of 3, read-out: CSF concentration C (mean)
  concentration at 5 min: 9.11 ng/mL
male, CD-1, mouse, CSF, ip, CSF, 15 min, individual animals, read-out: CSF concentration, Final (individual sample)
  concentration at 15 min: 1.21 ng/mL
male, CD-1, mouse, CSF, ip, CSF, 15 min, mean of 3, read-out: CSF concentration C (mean)
  concentration at 15 min: 1.7 ng/mL
male, CD-1, mouse, CSF, ip, CSF, 30 min, mean of 3, read-out: CSF concentration C (mean)
  concentration at 30 min: 3.94 ng/mL
male, CD-1, mouse, CSF, ip, CSF, 60 min, mean of 3, read-out: CSF concentration C (mean)
  concentration at 60 min: 0.35 ng/mL
male, CD-1, mouse, CSF, ip, CSF, 120 min, mean of 3, read-out: CSF concentration C (mean)
  concentration at 120 min: 1.36 ng/mL
male, CD-1, mouse, CSF, ip, CSF, 240 min, individual animals, read-out: CSF concentration, Final (individual sample)
  concentration at 240 min: 0 ng/mL
male, CD-1, mouse, CSF, ip, CSF, 240 min, mean of 3, read-out: CSF concentration C (mean)
  concentration at 240 min: 0 ng/mL
male, CD-1, mouse, CSF, ip, CSF, 360 min, individual animals, read-out: CSF concentration, Final (individual sample)
  concentration at 360 min: 0 ng/mL
male, CD-1, mouse, CSF, ip, CSF, 360 min, mean of 3, read-out: CSF concentration C (mean)
  concentration at 360 min: 0 ng/mL
male, CD-1, mouse, CSF, ip, CSF, 480 min, mean of 3, read-out: CSF concentration C (mean)
  concentration at 480 min: 0.4 ng/mL
male, CD-1, mouse, CSF, ip, CSF, individual animals, read-out: CSF concentration, Final (individual sample)
  concentration at 1440 min: 0 ng/mL
male, CD-1, mouse, CSF, ip, CSF, mean of 3, read-out: CSF concentration C (mean)
  concentration at 1440 min: 0 ng/mL
male, CD-1, mouse, brain, ip, brain, 5 min, individual animals, read-out: Brain concentration, Final (individual sample)
  concentration at 5 min: 20.4 ng/g
male, CD-1, mouse, brain, ip, brain, 5 min, mean of 3, read-out: Brain concentration C (mean)
  concentration at 5 min: 21.9 ng/g
male, CD-1, mouse, brain, ip, brain, 15 min, mean of 3, read-out: Brain concentration C (mean)
  concentration at 15 min: 14.9 ng/g
male, CD-1, mouse, brain, ip, brain, 30 min, individual animals, read-out: Brain concentration, Final (individual sample)
  concentration at 30 min: 11.3 ng/g
male, CD-1, mouse, brain, ip, brain, 30 min, mean of 3, read-out: Brain concentration C (mean)
  concentration at 30 min: 11.1 ng/g
male, CD-1, mouse, brain, ip, brain, 60 min, mean of 3, read-out: Brain concentration C (mean)
  concentration at 60 min: 6.66 ng/g
male, CD-1, mouse, brain, ip, brain, 120 min, individual animals, read-out: Brain concentration, Final (individual sample)
  concentration at 120 min: 0 ng/g
male, CD-1, mouse, brain, ip, brain, 120 min, mean of 3, read-out: Brain concentration C (mean)
  concentration at 120 min: 0 ng/g
male, CD-1, mouse, brain, ip, brain, 240 min, individual animals, read-out: Brain concentration, Final (individual sample)
  concentration at 240 min: 0 ng/g
male, CD-1, mouse, brain, ip, brain, 240 min, mean of 3, read-out: Brain concentration C (mean)
  concentration at 240 min: 0 ng/g
male, CD-1, mouse, brain, ip, brain, 360 min, individual animals, read-out: Brain concentration, Final (individual sample)
  concentration at 360 min: 0 ng/g
male, CD-1, mouse, brain, ip, brain, 360 min, mean of 3, read-out: Brain concentration C (mean)
  concentration at 360 min: 0 ng/g
male, CD-1, mouse, brain, ip, brain, 480 min, individual animals, read-out: Brain concentration, Final (individual sample)
  concentration at 480 min: 0 ng/g
male, CD-1, mouse, brain, ip, brain, 480 min, mean of 3, read-out: Brain concentration C (mean)
  concentration at 480 min: 0 ng/g
male, CD-1, mouse, brain, ip, brain, individual animals, read-out: Brain concentration, Final (individual sample)
  concentration at 1440 min: 0 ng/g
male, CD-1, mouse, brain, ip, brain, mean of 3, read-out: Brain concentration C (mean)
  concentration at 1440 min: 0 ng/g
male, CD-1, mouse, plasma, ip, plasma, 5 min, individual animals, read-out: Plasma concentration, Final (individual sample)
  concentration at 5 min: 546 ng/mL
male, CD-1, mouse, plasma, ip, plasma, 5 min, mean of 3, read-out: Plasma concentration C (mean)
  concentration at 5 min: 609 ng/mL
male, CD-1, mouse, plasma, ip, plasma, 15 min, mean of 3, read-out: Plasma concentration C (mean)
  concentration at 15 min: 834 ng/mL
male, CD-1, mouse, plasma, ip, plasma, 30 min, mean of 3, read-out: Plasma concentration C (mean)
  concentration at 30 min: 734 ng/mL
male, CD-1, mouse, plasma, ip, plasma, 60 min, mean of 3, read-out: Plasma concentration C (mean)
  concentration at 60 min: 393 ng/mL
male, CD-1, mouse, plasma, ip, plasma, 120 min, mean of 3, read-out: Plasma concentration C (mean)
  concentration at 120 min: 304 ng/mL
male, CD-1, mouse, plasma, ip, plasma, 240 min, mean of 3, read-out: Plasma concentration C (mean)
  concentration at 240 min: 31.1 ng/mL
male, CD-1, mouse, plasma, ip, plasma, 360 min, mean of 3, read-out: Plasma concentration C (mean)
  concentration at 360 min: 11.2 ng/mL
male, CD-1, mouse, plasma, ip, plasma, 480 min, individual animals, read-out: Plasma concentration, Final (individual sample)
  concentration at 480 min: 0 ng/mL
male, CD-1, mouse, plasma, ip, plasma, 480 min, mean of 3, read-out: Plasma concentration C (mean)
  concentration at 480 min: 0 ng/mL
male, CD-1, mouse, plasma, ip, plasma, individual animals, read-out: Plasma concentration, Final (individual sample)
  concentration at 1440 min: 0 ng/mL
male, CD-1, mouse, plasma, ip, plasma, mean of 3, read-out: Plasma concentration C (mean)
  concentration at 1440 min: 0 ng/mL
male, CD-1, mouse, plasma, ip, 10 mg/kg i.p.
  Cmax: 834 ng/mL
male, CD-1, mouse, plasma, ip, 10 mg/kg i.p., read-out: plasma AUC (converted)
  AUC: 1340 ng·h/mL
CSF, 5 min, individual animals
  CSF concentration, Final (individual sample): 0 ng/mL and 11.4 ng/mL and 16.0 ng/mL
CSF, 15 min, individual animals
  CSF concentration, Final (individual sample): 2.26 ng/mL and 1.62 ng/mL
CSF, 30 min, individual animals
  CSF concentration, Final (individual sample): 2.31 ng/mL and 1.36 ng/mL and 8.16 ng/mL
CSF, 60 min, individual animals
  CSF concentration, Final (individual sample): 1.05 ng/mL and 0 ng/mL
CSF, 120 min, individual animals
  CSF concentration, Final (individual sample): 4.07 ng/mL and 0 ng/mL
CSF, 480 min, individual animals
  CSF concentration, Final (individual sample): 1.20 ng/mL and 0 ng/mL
brain, 5 min, individual animals
  Brain concentration, Final (individual sample): 29.4 ng/g and 15.9 ng/g
brain, 15 min, individual animals
  Brain concentration, Final (individual sample): 15.1 ng/g and 20.3 ng/g and 9.28 ng/g
brain, 30 min, individual animals
  Brain concentration, Final (individual sample): 9.04 ng/g and 12.8 ng/g
brain, 60 min, individual animals
  Brain concentration, Final (individual sample): 7.24 ng/g and 0 ng/g and 12.8 ng/g
plasma, 5 min, individual animals
  Plasma concentration, Final (individual sample): 525 ng/mL and 757 ng/mL
plasma, 15 min, individual animals
  Plasma concentration, Final (individual sample): 1131 ng/mL and 825 ng/mL and 545 ng/mL
plasma, 30 min, individual animals
  Plasma concentration, Final (individual sample): 543 ng/mL and 519 ng/mL and 1140 ng/mL
plasma, 60 min, individual animals
  Plasma concentration, Final (individual sample): 539 ng/mL and 0 ng/mL and 640 ng/mL
plasma, 120 min, individual animals
  Plasma concentration, Final (individual sample): 446 ng/mL and 153 ng/mL and 313 ng/mL
plasma, 240 min, individual animals
  Plasma concentration, Final (individual sample): 33.6 ng/mL and 42.0 ng/mL and 17.7 ng/mL
plasma, 360 min, individual animals
  Plasma concentration, Final (individual sample): 0 ng/mL and 34 ng/mL
